The test system of assay [1] is homozygous diploid strain containing a PDR5 deletion mutation (strain #32409, S04). Description: Growth yield (OD600) of homozygous diploid PDR5 deletion strain in YPD medium with butanol. The settings on record: for OD600 after 23 hours incubation with 1-butanol / OD600 after 24 hours incubation with isobutanol: diploid PDR5 mutant, YPD, 30° C., inoculum OD600 0.01, average +/- SD; for growth yield of strain with the PDR5 deletion compared to BY4743: diploid. In kind it is cell-based, Saccharomyces cerevisiae.

Assay [2] concerns diploid parental strain BY4743. The settings on record: YPD, 30° C., inoculum OD600 0.01, average +/- SD.
Procedure: The inoculum OD600 was 0.01. The OD600 of each culture was measured after 24 hours incubation on a roller drum at 30° C. Triplicate cultures of each strain were tested. The average and standard deviation of the 24 hour growth yield measurements in each isobutanol concentration are given in Table 5.
The inoculum OD600 was 0.01. The OD600 of each culture was measured after 23 hours incubation on a roller drum at 30° C. Triplicate cultures of each strain were tested.
The subject of another assay is parental strain BY4741. Description: Growth yield (OD600) of haploid parental strain in YPD medium with isobutanol. The settings on record: 30° C., inoculum OD600 0.01, average +/- SD. In kind it is cell-based, Saccharomyces cerevisiae. The procedure:
(§1) A haploid strain of Saccharomyces cerevisiae containing a PDR5 deletion mutation (strain #2409) was obtained from Open Biosystems (Huntsville, Ala.) The deletion strain was made as part of the Saccharomyces Genome Deletion Project described in Winzeler al. (Science, 285:901-906, (1999)). […] The inoculum OD600 was 0.01. […] Duplicate cultures of each strain were tested.

For assay [3], the system named is haploid strain containing a PDR5 deletion mutation (strain #2409). Kind of assay: Growth yield (OD600) of haploid PDR5 deletion strain in YPD medium with isobutanol. In kind it is cell-based, Saccharomyces cerevisiae. The settings on record: for OD600 after 24 hours incubation with isobutanol: haploid PDR5 mutant, YPD, 30° C., inoculum OD600 0.01, average +/- SD; for growth yield of strain with the PDR5 deletion compared to BY4741: haploid, 24 hours. The procedure: as §1

The structures appear in SMILES notation. Read-outs that look alike come from different tables or passages of the source.

In the case of `CCCCO` [1-Butanol, 1-butanol], the “OD600 after 23 hours incubation with 1-butanol” value in assay [1] (0.625 % w/v 1-butanol) is reported as 3.27 +/− 0.23; in assay [1] (0.75 % w/v 1-butanol), 0.40 +/− 0.02; in assay [1] (0.875 % w/v 1-butanol), 0.27 +/− 0.01; in assay [2] (0.625 % w/v 1-butanol) it was 2.38 +/− 0.25; in assay [2] (0.75 % w/v 1-butanol), 0.30 +/− 0.03; in assay [2] (0.875 % w/v 1-butanol) it was 0.22 +/− 0.01. The “growth yield of strain with the PDR5 deletion compared to BY4743” value in assay [1] (0.625% w/v 1-butanol, 23 hours) came out at 1.4 fold; in assay [1] (0.75% w/v 1-butanol, 23 hours), 1.3 fold; in assay [1] (0.875% w/v 1-butanol, 23 hours) it was 1.2 fold.

Consider `CC(C)CO` [Isobutanol, isobutanol], for which the “OD600 after 24 hours incubation with isobutanol” value (“OD600 after 24 hours incubation” for short) in assay [1] (0.25 % w/v isobutanol) is 7.51 +/− 0.11; in assay [1] (0.5 % w/v isobutanol), 7.17 +/− 0.12; in assay [1] (0.75 % w/v isobutanol), 4.91 +/− 0.29; in assay [1] (0.825 % w/v isobutanol), 1.67 +/− 0.13; in assay [1] (1 % w/v isobutanol) it was 0.16 +/− 0.01; in the assay on parental strain BY4741 (0.75 % w/v isobutanol), 2.68 +/− 0.07. In addition, the “OD600 after 24 hours incubation” value is on record as 0.692 +/− 0.04 with parental strain BY4741 (0.875 % w/v isobutanol); 0.09 +/− 0.02 in the assay on parental strain BY4741 (1 % w/v isobutanol); 4.71 +/− 0.53 in assay [3] (0.75 % w/v isobutanol); 2.45 +/− 0.42 in assay [3] (0.875 % w/v isobutanol); 0.76 +/− 0.13 in assay [3] (1 % w/v isobutanol); 7.36 +/− 0.04 in assay [2] (0.25 % w/v isobutanol). The “OD600 after 24 hours incubation” value in assay [2] (0.5 % w/v isobutanol) is 6.62 +/− 0.24; in assay [2] (0.75 % w/v isobutanol), 1.84 +/− 0.36; in assay [2] (0.825 % w/v isobutanol) it was 0.19 +/− 0.03; in assay [2] (1 % w/v isobutanol), 0.08 +/− 0.01. Further, the “growth yield of strain with the PDR5 deletion compared to BY4743” value in assay [1] (0.75% w/v isobutanol, 24 hours) is recorded as 2.7 fold; in assay [1] (0.825% w/v isobutanol, 24 hours), 8.8 fold. Besides, the “growth yield of strain with the PDR5 deletion compared to BY4741” value is listed as 1.8 fold in assay [3] (0.75% w/v isobutanol), 3.5 fold in assay [3] (0.825% w/v isobutanol) and 8 fold in assay [3] (1% w/v isobutanol).
